Experimental findings from ChEMBL document CHEMBL4052738, “Design and synthesis of 4-morpholino-6-(1,2,3,6-tetrahydropyridin-4-yl)-N-(3,4,5-trimethoxyphenyl)-1,3,5-triazin-2-amine analogues as tubulin polymerization inhibitors” (Bioorg Med Chem Lett, 2017) are described below.

Structures are written as SMILES. Activity calls are given as the source filed them. The rule behind the calls is not given here.

A word on the IC50: it is the midpoint of a concentration-inhibition curve.

Assay [1] has as its system HeLa. Description: Inhibition of tubulin polymerization in human HeLa cells assessed as increase in soluble tubulin fraction at 10 mM after 24 hrs by immunoblot analysis. Format: cell-based.
Assay [2] has as its system HeLa. Description: Induction of apoptosis in human HeLa cells assessed as increase in cyclin-B1 levels at 10 mM after 24 hrs by immunoblot analysis. Format: functional, cell-based. Background: In western blotting, separated proteins are transferred to a membrane and probed.
Assay [3] is described as follows: Inhibition of porcine tubulin polymerization after 1 hr in presence of GTP. The arrangement: species or system Sus scrofa.
Assay [4] deals with HeLa. Nature of the assay: Inhibition of microtubule polymerization in human HeLa cells assessed as cell rounding at 10 mM after 24 hrs by DAPI staining-based immunofluorescence assay.
The next assay has as its system HepG2. Description: Antiproliferative activity against human HepG2 cells after 48 hrs by sulforhodamine B assay. To be noted: HepG2, 48 h. The assay is classed as functional, cell-based. (In SRB staining, fixed cells bind dye roughly in proportion to their protein.)
Assay [5] deals with HeLa. Nature of the assay: Antiproliferative activity against human HeLa cells after 48 hrs by sulforhodamine B assay. Format: functional, cell-based.
Another assay relates to A549. Nature of the assay: Antiproliferative activity against human A549 cells after 48 hrs by sulforhodamine B assay. The assay is classed as functional, cell-based. To be noted: A549, 48 h.
Assay [6] relates to HeLa. Nature of the assay: Inhibition of microtubule polymerization in human HeLa cells assessed as spindle fibres in nucleus at 10 mM after 24 hrs by DAPI staining-based immunofluorescence assay. The assay is classed as cell-based.
A further assay concerns MCF7. Description: Antiproliferative activity against human MCF7 cells after 48 hrs by sulforhodamine B assay. The assay is classed as functional, cell-based. To be noted: MCF7, 48 h.
Assay [7] relates to HeLa. Description: Inhibition of microtubule polymerization in human HeLa cells assessed as cell rounding at 1 mM after 24 hrs by DAPI staining-based immunofluorescence assay.
Assay [8] relates to HeLa. Description: Inhibition of tubulin polymerization in human HeLa cells assessed as increase in soluble tubulin fraction at 1 mM after 24 hrs by immunoblot analysis. Format: cell-based.
In assay [9] the test system is HeLa. Nature of the assay: Induction of apoptosis in human HeLa cells assessed as increase in cyclin-B1 levels at 1 mM after 24 hrs by immunoblot analysis. The assay is classed as functional, cell-based.
Assay [10] relates to HeLa. Description: Inhibition of microtubule polymerization in human HeLa cells assessed as spindle fibres in nucleus at 1 mM after 24 hrs by DAPI staining-based immunofluorescence assay. The assay is classed as cell-based.

In the case of `COc1cc(Nc2nc(C3=CCN(C(=O)c4ccc([N+](=O)[O-])o4)CC3)nc(N3CCOCC3)n2)cc(OC)c1OC`, the inhibition entry in the assay with HeLa [1], in the assay on HeLa [4] and in the assay on HeLa [6] was “Active” each time. Besides, in the assay on HeLa [2], the result was Active. In addition, the 50% inhibitory concentration (IC50) in [3] amounted to 5.2 µM; in the assay on HepG2, 9.6 µM; in the assay on HeLa [5] it was 12.3 µM; in the assay with A549, 10.5 µM; in the assay on MCF7, 11.7 µM.
For `COc1cc(Nc2nc(C3=CCN(S(=O)(=O)c4ccc(C(C)(C)C)cc4)CC3)nc(N3CCOCC3)n2)cc(OC)c1OC`, the half-inhibitory concentration (IC50) in the assay on HepG2 worked out at 48.4 µM; in the assay on HeLa [5], 50.4 µM; with A549, 33.5 µM; in the assay with MCF7, 40.4 µM.
`COC(=O)Nc1nc2cc(C(=O)c3cccs3)ccc2[nH]1` [NOCODAZOLE]: the inhibition result in the assay on HeLa [7], in the assay with HeLa [8] and in the assay on HeLa [10] was “Active” throughout. For the same compound, the IC50 came to 0.8 µM in [3], 1.1 µM with HepG2, 1.6 µM with HeLa [5] and 1.5 µM with MCF7. For the same compound, the outcome in the assay on HeLa [9] was Active.
As for `COc1cc(Nc2nc(C3=CCN(S(=O)(=O)c4ccc(Br)s4)CC3)nc(N3CCOCC3)n2)cc(OC)c1OC`, the half-maximal inhibitory concentration (IC50) in the assay with HepG2 worked out at 28 µM; in the assay on HeLa [5] it was 39.6 µM; in the assay with A549, 29 µM; in the assay with MCF7 it was 30.6 µM.
`COc1cc(Nc2nc(C3=CCN(S(C)(=O)=O)CC3)nc(N3CCOCC3)n2)cc(OC)c1OC`: the half-inhibitory concentration (IC50) turned out to be 28.5 µM in the assay with HepG2, 32 µM in the assay on HeLa [5], 39 µM with A549 and 28.9 µM with MCF7.
With `COc1ccc(S(=O)(=O)N2CC=C(c3nc(Nc4cc(OC)c(OC)c(OC)c4)nc(N4CCOCC4)n3)CC2)cc1`, the half-inhibitory concentration (IC50) in the assay on HepG2 turned out to be 30.6 µM; with HeLa [5], 47.8 µM; in the assay on A549 it was 34.9 µM; in the assay with MCF7, 50.3 µM.
Turning to `COc1cc(Nc2nc(C3=CCN(C(=O)c4cnccn4)CC3)nc(N3CCOCC3)n2)cc(OC)c1OC`, the IC50 in the assay with HepG2 came out at 40 µM; in the assay with HeLa [5] it was 48.3 µM; in the assay with A549, 41.9 µM; with MCF7, 39.4 µM.
